Test results as given in patent publication US9492456B2, “Valomaciclovir polymorphs” (EPIPHANY BIOSCIENCES, INC., priority 2007, dated 2016).
“Also recorded” adds a separate entry of the source. Like-named read-outs stand apart in the source and are kept apart here.

Columns and labels:
[1] = Powder flow (Carr Index, tapped compressibility); assay type: physicochemical
Text: The flow characteristics of the solid products of this invention can be measured by the Carr index [Pharmaceutical Preformulation and Formulation, A practical guide from candidate selection to commercial dosage form, Mark Gibson, Ed.; Interpharm Press, 2002; pages 386-7.) By subjecting a powder to mechanical forces, resistance to powder flow can be observed. The increase in bulk density (compressibility) of a powder subjected to tapping can be used to determine the Carr index. In some embodiments, the Polymorph A enriched valomaciclovir has a Carr index value range from about 35 to about 50.
By subjecting a powder to mechanical forces, resistance to powder flow can be observed. The increase in bulk density (compressibility) of a powder subjected to tapping can be used to determine the Carr index. This index was measured for each of the four recrystallized batches and tabulated below.
Powder flow characteristics were compared using the Carr Index. By subjecting a powder to mechanical forces, resistance to powder flow can be observed. The increase in bulk density (compressibility) of a powder subjected to tapping can be used to determine the Carr index. A summary of Carr indices and qualitative flow properties are summarized below in Table 13.
Batches were sieved to <1000 microns before testing. This was necessary to remove any clumps in the samples.

[2] = Particle and agglomerate size by polarized light microscopy in silicone oil; assay type: physicochemical
Text: The particle size of the solid product of this invention can be evaluated in silicone oil using polarized light microscopy. In some embodiments, Polymorph A enriched valomaciclovir has particle size range from about 10 to about 300 microns as measured using this system.
Polarized light microscopy was used to evaluate the particle size range of the recrystallized samples in silicone oil. The particle size range is reported in Table 4 along with the powder flow data.
A Zeiss Universal microscope configured with a polarized visible light source and polarizable analyzer was used to evaluate the optical properties of the samples. Specimens were typically mounted on a microscope slide with a drop of immersion oil and a cover glass. Magnification was typically 250×. Observations of particle/crystal size and shape were recorded. The presence of birefringence was also noted.

[3] = Powder flow (Carr Index, tapped compressibility); assay type: physicochemical; settings: visual observation
[4] = Competitive and non-competitive slurry experiments in ethanol (energy relationships); assay type: physicochemical
Procedure: Competitive slurry experiments were performed using mixtures (normally 50:50) of the forms in ethanol and agitating at approximately 25° C. for several days. Noncompetitive slurries were performed by agitating excess solids of one form in ethanol at room temperature. […] In both the competitive and noncompetitive slurry experiments, the solids were vacuum filtered and analyzed by XRD. The XRD patterns are used to determine if the undissolved solids had transformed into a different polymorphic form. In one case, a different polymorphic form emerged that was different than either of the two forms initially present. This indicates both original forms were metastable to the final form isolated.

[5] = Polymorph screening study, summary of forms; assay type: physicochemical; settings: Table 12 summary
Procedure: A polymorph screening study was performed on valomaciclovir active pharmaceutical ingredient. The screen entailed recrystallizing the material using solvent recrystallization, recrystallization from the melt, annealing experiments, and slurry experiments. Overall, the API was recrystallized under more than 100 different crystal growth conditions and analyzed using powder x-ray diffraction. A chemometric treatment of the x-ray data was used to categorize the samples into different groups. These groups were studied using thermal, optical, spectroscopic and other tools to elucidate which groups represent unique solid state forms of the API.
The raw diffraction data generated from the polymorph screening experiments (solvent recrystallization, recrystallization from the melt, annealing, non-competitive slurries) were initially categorized into 8 different groups using a chemometric treatment. Analyses of these different groups were used to perform additional experiments (e.g. DSC, TGA, HSM, NMR, etc.) to refine the groups identified by the chemometric treatment.

[6] = tested on: human varicella zoster virus (VZV); settings: cited from earlier work
Epstein-Barr virus (EBV) = settings: cited from earlier work
[7] = tested on: human herpesvirus-6 (HHV-6); settings: cited from earlier work
HSV-I = settings: cited from earlier work
HSV-2 = settings: cited from earlier work
[8] = Water solubility / lipophilicity of the API; assay type: physicochemical
[9] = human, multiple dosing, total daily doses of up to 6.0 g; cited from earlier work
zoster = settings: suspension, 250, 500 and 750 mg BID for 7 days, zoster patients, acyclovir control; cited from earlier work
[10] = Table 2, earlier valomaciclovir batches, sieved to <1000 microns
[11] = Table 2, earlier batches, no unit in table (microns)

## CCCCCCCCCCCCCCCCCC(=O)OC[C@@H](CCn1cnc2c(=O)[nH]c(N)nc21)COC(=O)[C@@H](N)C(C)C [Batch 12-03-018]
[1]; [10]
  Carr Index: 48
[2]; [11]
  Agglomerate Size: 100
  Typical Particle Size Range: 5-40

## CCCCCCCCCCCCCCCCCC(=O)OCC(CCOC(=O)C(N)C(C)C)Cn1cnc2c(=O)[nH]c(N)nc21 (stereo not shown) [Batch 52772-2-7]
[1]; Table 4, recrystallized samples (ethanol or SDA 3C), listed as 52772-2-7
  Carr Index: 53
[2]; Table 4, recrystallized samples, in silicone oil, no unit in table, listed as 52772-2-7
  Typical Particle Size Range: 20-50

## CCCCCCCCCCCCCCCCCC(=O)OCC(CCOC(=O)C(N)C(C)C)Cn1cnc2c(=O)[nH]c(N)nc21 (stereo not shown) [Batch 52772-3-17]
[1]; Table 4, recrystallized samples (ethanol or SDA 3C), listed as 52772-3-17
  Carr Index: 56
[2]; Table 4, recrystallized samples, in silicone oil, no unit in table, listed as 52772-3-17
  Typical Particle Size Range: 10-30

## CCCCCCCCCCCCCCCCCC(=O)OC[C@H](CCOC(=O)[C@@H](N)C(C)C)Cn1cnc2c(=O)[nH]c(N)nc21 [Batch 52772-5-8]
[1]; Table 4, recrystallized samples (ethanol or SDA 3C), listed as 52772-5-8
  Carr Index: 44
[2]; Table 4, recrystallized samples, in silicone oil, no unit in table, listed as 52772-5-8
  Typical Particle Size Range: 35-50

## CCCCCCCCCCCCCCCCCC(=O)OC[C@H](CCOC(=O)[C@@H](N)C(C)C)Cn1cnc2c(=O)[nH]c(N)nc21 [Batch 52772-8-10]
[1]; Table 4, recrystallized samples (ethanol or SDA 3C), listed as 52772-8-10
  Carr Index: 38
[2]; Table 4, recrystallized samples, in silicone oil, no unit in table, listed as 52772-8-10
  Typical Particle Size Range: 150-300

## CCCCCCCCCCCCCCCCCC(=O)OC[C@H](CCOC(=O)[C@@H](N)C(C)C)Cn1cnc2c(=O)[nH]c(N)nc21 [Batch 146756]
[1]
  Flowability (in words): extremely poor flowability
[1]; [10]
  Carr Index: 64
[2]; [11]
  Agglomerate Size: 200
  Typical Particle Size Range: 5-20
[3]
  Handleability and powder flow: poor handleability and poor powder flow

## CCCCCCCCCCCCCCCCCC(=O)OC[C@@H](CCn1cnc2c(=O)[nH]c(N)nc21)COC(=O)[C@@H](N)C(C)C [Form A]
[1]; listed as Polymorph A
  Flowability (in words): more flowable
[1]; listed as Polymorph A enriched valomaciclovir
  Flowability (in words): good flow characteristics
[4]; from slurry experiments and thermal behaviour
  Thermodynamic stability (in words): most stable polymorphic form; also recorded: more thermodynamically stable than the B polymorphs; also recorded: thermodynamically stable form
[4]; from slurry experiments and thermal behaviour, listed as Polymorph A
  Thermodynamic stability (in words): thermodynamically the most stable polymorph of valomaciclovir
[4]; inferred from slurry conversion / enantiotropic relationship
  Relative solubility of polymorphic forms (in words): less soluble
[5]
  Description (stability class of the polymorphic form): Thermodynamically

## CCCCCCCCCCCCCCCCCC(=O)OCC(CCn1cnc2c(=O)[nH]c(N)nc21)COC(=O)C(N)C(C)C (stereo not shown) [Form B1]
[5]
  Description (stability class of the polymorphic form): Metastable Polymorph

## CCCCCCCCCCCCCCCCCC(=O)OCC(CCOC(=O)C(N)C(C)C)Cn1cnc2c(=O)[nH]c(N)nc21 (stereo not shown) [Form B2]
[5]
  Description (stability class of the polymorphic form): Metastable Polymorph

## CCCCCCCCCCCCCCCCCC(=O)OCC(CCn1cnc2c(=O)[nH]c(N)nc21)COC(=O)C(N)C(C)C (stereo not shown) [Form B3]
[5]
  Description (stability class of the polymorphic form): Metastable Polymorph

## CCCCCCCCCCCCCCCCCC(=O)OCC(CCn1cnc2c(=O)[nH]c(N)nc21)COC(=O)C(N)C(C)C (stereo not shown) [Form B4]
[5]
  Description (stability class of the polymorphic form): Metastable Polymorph

## Nc1nc2c(ncn2C[C@H](CO)CCO)c(=O)[nH]1 [Form H2G]
[6]
  Antiviral activity (in words): potent activity
Epstein-Barr virus (EBV)
  Antiviral activity (in words): potent activity
[7]
  Antiviral activity (in words): potent activity
HSV-I
  Antiviral activity (in words): potent activity
HSV-2
  Antiviral activity (in words): potent activity

## CCCCCCCCCCCCCCCCCC(=O)OCC(CCn1cnc2c(=O)[nH]c(N)nc21)COC(=O)C(N)C(C)C (stereo not shown) [Form H]
[4]
  Relative solubility of polymorphic forms (in words): more soluble
  Thermodynamic stability (in words): less thermodynamically stable than the B polymorphs

## CCCCCCCCCCCCCCCCCC(=O)OC[C@H](CCOC(=O)[C@@H](N)C(C)C)Cn1cnc2c(=O)[nH]c(N)nc21 [valomaciclovir, L-valine, (3R)-3-[(2-amino-1,6-dihydro-6-oxo-9H-purin-9-yl)methyl]-4-[(1-oxooctadecyl)oxy]butyl ester]
[8]
  Lipophilicity (in words): fairly lipophilic
[8]; water
  Solubility in water (in words): practically insoluble in water
[9]
  Safety and tolerability: safe and well tolerated
zoster
  Zoster lesion healing: proof-of-concept for zoster lesion healing
